One data set relates to HIV. Briefly: microbe, parasite or virus in culture. The data set is classed as cell-based. Put shortly: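 MT-4 cells (2.5×10^5 cells/ml) infected with 1000 CCID50 HIV, added at once to compound dilutions, incubated 4 or 5 days at 37° C. Protection from virus-induced cytopathic effect read by MTT; cytotoxicity from MTT viability of mock-infected cells in parallel.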
The subject of another data set is mock-infected MT-4 cells. The data set is described as follows: Cytotoxicity based on viability of mock-infected host cells (MTT method). The data set is classed as cell-based. The conditions noted are these: mock-infected MT-4 cells, MTT method, 4 or 5 days at 37° C. Put shortly: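 Mock-infected MT-4 cells at 2.5×10^5 cells/ml were exposed to various concentrations of test compound, run in parallel with HIV-infected (1000 CCID50) cultures. After 4 or 5 days at 37° C., host-cell viability was read by MTT.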

The mark [1] stands for this setting: Human immunodeficiency virus 1, MT4, HIV-infected MT-4 cells, MTT method, 4 or 5 days at 37° C., read-out: ED50 (the source's name).
[2] abbreviates: Human immunodeficiency virus 1, MT4, read-out: ED50.

Each structure is given as a SMILES string. ≈ marks a conversion by molar mass, not a printed value. Like-named read-outs stand apart in the source and are kept apart here.

For orientation: melting point means the temperature, or range, at which the solid turns liquid. `COC(=O)c1ccoc1Cn1c(Oc2cc(C)cc(C)c2)c(C(C)C)c(=O)[nH]c1=O` [Example 154, 1-(3-Methoxycarbonyl-2-furanylmethyl)-5-isopropyl-6-(3,5-dimethylphenoxy)-2,4-pyrimidinedione] registered a melting point of 157 to 159 °C. The EC50 in the data set on HIV (setting [1]) is 0.074 µg/mL (≈ 0.179 µM). The compound further showed a CD50 in the data set on mock-infected MT-4 cells of 10.11 µg/mL.
In turn, `CCc1c(C(=O)c2cc(C)cc(C)c2)n(Cc2occc2C(=O)OC)c(=O)[nH]c1=O` [Example 155, 1-(3-Methoxycarbonyl-2-furanylmethyl)-5-ethyl-6-(3,5-dimethyl-benzoyl)-2,4-pyrimidinedione] came in with a melting point of 204 to 206 °C. The EC50 in the data set on HIV (setting [1]) turned out to be 0.017 µg/mL (≈ 0.0414 µM). The same compound gave a CD50 in the data set with mock-infected MT-4 cells of 13.45 µg/mL.
As to `COC(=O)c1ccoc1Cn1c(C(=O)c2cc(C)cc(C)c2)c(C(C)C)c(=O)[nH]c1=O` [Example 156, 1-(3-Methoxycarbonyl-2-furanylmethyl)-5-isopropyl-6-(3,5-dimethyl-benzoyl)-2,4-pyrimidinedione], the melting point was in the range of 180 to 183 °C. Further, the EC50 with HIV (setting [1]) was found to be 0.014 µg/mL (≈ 0.033 µM). Besides, in the data set with mock-infected MT-4 cells, the CD50 was 10.92 µg/mL.
Compound `CCc1c(Oc2cc(C)cc(C)c2)n(CC(C)=O)c(=O)[nH]c1=O` [Example 157, 1-(Acetonyl)-5-ethyl-6-(3,5-dimethylphenoxy)-2,4-pyrimidinedione] gave a melting point of 162 to 165 °C. The EC50 with HIV (setting [2]) turned out to be 0.0119 µg/mL (≈ 0.0376 µM). For the same compound, the CD50 in the data set on mock-infected MT-4 cells came out at 3.6 µg/mL.
The matching figures for `CC(=O)Cn1c(Oc2cc(C)cc(C)c2)c(C(C)C)c(=O)[nH]c1=O` [Example 158, 1-(Acetonyl)-5-isopropyl-6-(3,5-dimethylphenoxy)-2,4-pyrimidinedione]: 181 to 183 °C, 0.0043 µg/mL (≈ 0.013 µM) and above 100.00 µg/mL.
For `CCc1c(C(=O)c2cc(C)cc(C)c2)n(CC(C)=O)c(=O)[nH]c1=O` [Example 159, 1-(Acetonyl)-5-ethyl-6-(3,5-dimethylbenzoyl)-2,4-pyrimidinedione], in that order: 186 to 189 °C, 0.0018 µg/mL (≈ 0.00548 µM) and 11.8 µg/mL.
In turn, `CC(=O)Cn1c(C(=O)c2cc(C)cc(C)c2)c(C(C)C)c(=O)[nH]c1=O` [Example 160, 1-(Acetonyl)-5-isopropyl-6-(3,5-dimethylbenzoyl)-2,4-pyrimidinedione] showed a melting point of 181 to 183 °C. Also, in the data set with HIV (setting [2]), the EC50 was found to be 0.0005 µg/mL (≈ 0.00146 µM). The compound also had a CD50 in the data set on mock-infected MT-4 cells of 14.0 µg/mL.
Consider `CCC(=O)Cn1c(Oc2cc(C)cc(C)c2)c(CC)c(=O)[nH]c1=O` [Example 161, 1-(2-Butanon-1-yl)-5-ethyl-6-(3,5-dimethylphenoxy)-2,4-pyrimidinedione], for which the melting point was 116 to 118 °C. Also, in the data set with HIV (setting [2]), the EC50 amounted to 0.018 µg/mL (≈ 0.0545 µM). In the data set on mock-infected MT-4 cells, this compound displayed a CD50 of 48.0 µg/mL.
In turn, `CCC(=O)Cn1c(Oc2cc(C)cc(C)c2)c(C(C)C)c(=O)[nH]c1=O` [Example 162, 1-(2-Butanon-1-yl)-5-isopropyl-6-(3,5-dimethylphenoxy)-2,4-pyrimidinedione] showed a melting point of 135 to 138 °C. The EC50 in the data set with HIV (setting [2]) was found to be 0.0159 µg/mL (≈ 0.0462 µM). In addition, the CD50 in the data set with mock-infected MT-4 cells came to 41.40 µg/mL.
`CCC(=O)Cn1c(C(=O)c2cc(C)cc(C)c2)c(C(C)C)c(=O)[nH]c1=O` [Example 164, 1-(2-Butanon-1-yl)-5-isopropyl-6-(3,5-dimethylbenzoyl)-2,4-pyrimidinedione] had a melting point of 174 to 176 °C. In addition, the EC50 in the data set with HIV (setting [2]) turned out to be 0.0026 µg/mL (≈ 0.00729 µM). Moreover, the CD50 in the data set on mock-infected MT-4 cells was 20.58 µg/mL.
